Measured values taken from patent US20240261418A1, “SOS1 DEGRADING AGENT AND PREPARATION METHOD THEREFOR AND APPLICATION THEREOF” (SHANGHAI LEADINGTAC PHARMACEUTICAL CO. LTD., priority 2021, published 2024).

Tested on: KRAS G12V mutant human lung adenocarcinoma cells NCI-H441
Assay: 3D cell proliferation inhibition assay, NCI-H441
Type: cell-based
Conditions: NCI-H441, 168 h, 7 days, CTG
Excerpt: Test Example 4: 3D Cell Proliferation Inhibition Assay
The inhibitory effect of the compounds on the proliferation of 3D cells was investigated on KRAS G12C mutant human non-small cell lung cancer cells NCI-H358 (ATCC or Stem Cell Bank, Chinese Academy of Sciences), KRAS G12D mutant human metastatic pancreatic adenocarcinoma cells AsPC-1 (ATCC), KRAS G12V mutant human lung adenocarcinoma cells NCI-H441 (ATCC), and KRAS G13D mutant human colorectal adenocarcinoma epithelial cells DLD-1 (ATCC). The specific procedures were as follows:
200 nL of compound solution diluted in a gradient was added to corresponding microwells of a 384-well low-adsorption microwell plate (Corning, 3657) using an Echo sonic pipetting system (Labcyte, Echo 550), so that the final concentration of the test compound in the reaction system was in a range of 20000 nM-0.008 nM. Then 40 μL of cells at a certain density were added to the corresponding microplate. In addition to test wells for the test compounds, both a DMSO control well and a medium control well were set, with the DMSO control well containing DMSO and cells and the medium well containing only medium. […] The plate was incubated at room temperature for 30 min and read on a microplate reader EnVision using the chemiluminescence program. […]

| SMILES | IC50 [nM] |
| --- | --- |
| COc1cc2nc(C)nc(N[C@H](C)c3cc(-c4c(Cl)cccc4CN(C)C)cs3)c2cc1[C@H]1CC[C@H](C(=O)N2CCN(CC3CCC4(CC3)CCN(C(=O)c3ccc(Cl)c(N5CCC(=O)NC5=O)c3)CC4)CC2)CC1 [Example 1, 1-(2-chloro-5-(9-((4-((1R,4R)-4-(4-(((R)-1-(4-(2-chloro-6-((dimethylamino)methyl)phenyl)thien-2-yl)ethyl)amino)-7-methoxy-2-methylquinazolin-6-yl)cyclohexane-1-carbonyl)piperazin-1-yl)methyl)-3-azaspiro[5.5]undecane-3-carbonyl)phenyl)dihydropyrimidine-2,4(1H,3H)-dione] | 50 to 100 |
| COc1cc2nc(C)nc(N[C@H](C)c3cc(-c4c(Cl)cccc4CN(C)C)cs3)c2cc1[C@H]1CC[C@H](C(=O)N2CCC(CCOCC3CCN(C(=O)c4ccc(Cl)c(N5CCC(=O)NC5=O)c4)CC3)CC2)CC1 [Example 5, 1-(2-chloro-5-(4-((2-(1-((1R,4R)-4-(4-(((R)-1-(4-(2-chloro-6-((dimethylamino)methyl)phenyl)thien-2-yl)ethyl)amino)-7-methoxy-2-methylquinazolin-6-yl)cyclohexane-1-carbonyl)piperidin-4-yl)ethoxy)methyl)piperidine-1-carbonyl)phenyl)dihydropyrimidine-2,4(1H,3H)-dione] | ≤ 15 |
